The source of these data is ChEMBL document CHEMBL3046323, “Photosynthetic Electron Transport Inhibitory and Herbicidal Activities of 2-(N-Acylbenzylamino)-4-methyl-6-fluoroalkyl-1, 3, 5-triazine Derivatives” (J Pestic Sci, 2001).

The structures appear in SMILES notation.

Assay [1] deals with Amaranthus blitum subsp. oleraceus. The assay is described as follows: Herbicidal activity against Amaranthus blitum subsp. Oleraceus at 4 kg/ha treated as soil application at pre-emergence after 3 weeks. In kind it is functional.
Assay [2] deals with Chenopodium album. The assay is described as follows: Herbicidal activity against Chenopodium album at 4 kg/ha treated as soil application at pre-emergence after 3 weeks. In kind it is functional.
Assay [3] concerns Echinochloa crus-galli var. crus-galli. The assay is described as follows: Herbicidal activity against Echinochloa crus-galli var. crus-galli at 4 kg/ha treated as soil application at pre-emergence after 3 weeks. Format: functional.
In assay [4] the test system is Digitaria ciliaris. The assay is described as follows: Herbicidal activity against Digitaria ciliaris at 4 kg/ha treated as soil application at pre-emergence after 3 weeks. Format: functional.
Assay [5] has as its system Persicaria longiseta. The assay is described as follows: Herbicidal activity against Persicaria longiseta at 4 kg/ha treated as paddy application at pre-emergence after 3 weeks. In kind it is functional.
Assay [6] relates to Chenopodium album. Briefly: Herbicidal activity against Chenopodium album at 4 kg/ha treated as paddy application at pre-emergence after 3 weeks. In kind it is functional.
Assay [7] concerns Digitaria ciliaris. The assay is described as follows: Herbicidal activity against Digitaria ciliaris at 4 kg/ha treated as paddy application at pre-emergence after 3 weeks. In kind it is functional.
For assay [8], the system named is Echinochloa crus-galli var. crus-galli. The assay is described as follows: Herbicidal activity against Echinochloa crus-galli var. crus-galli at 4 kg/ha treated as paddy application at pre-emergence after 3 weeks. In kind it is functional.
A further assay has as its system Pontederia vaginalis. Briefly: Herbicidal activity against Monochoria vaginalis at 4 kg/ha treated as foliar application at post-emergence after 3 weeks. Format: functional.
The test system of assay [9] is Schoenoplectiella juncoides. The assay is described as follows: Herbicidal activity against Schoenoplectiella juncoides var. Hotarui Ohwi at 4 kg/ha treated as foliar application at post-emergence after 3 weeks. In kind it is functional.
A further assay deals with Echinochloa oryzicola. Briefly: Herbicidal activity against Echinochloa oryzicola at 4 kg/ha treated as foliar application at post-emergence after 3 weeks. In kind it is functional.
The test system of assay [10] is Persicaria longiseta. Briefly: Herbicidal activity against Persicaria longiseta at 4 kg/ha treated as soil application at pre-emergence after 3 weeks. In kind it is functional.
Another assay relates to Rotala indica. Briefly: Herbicidal activity against Rotala indica at 4 kg/ha treated as foliar application at post-emergence after 3 weeks. In kind it is functional.
Assay [11] can be described thus: Inhibition of photosynthetic electron transport in Spinacia oleracea leaf thylakoids assessed as oxygen formation.

Regarding `CCC(=O)N(Cc1ccccc1)c1nc(C)nc(C(F)(F)F)n1`, the Activity was determined as 91% in assay [1]; 91% in the assay with Chenopodium album [2]; 76% in assay [3]; 91% in the assay on Digitaria ciliaris [4]; 100% in the assay on Persicaria longiseta [5]; 100% in the assay with Chenopodium album [6]. The Activity was 76% in the assay with Digitaria ciliaris [7]; 76% in [8]; 26% in the assay on Pontederia vaginalis; 0% in assay [9]; 0% in the assay on Echinochloa oryzicola; 91% with Persicaria longiseta [10].

In the case of `Cc1nc(NCc2ccc(Cl)cc2)nc(C(F)(F)F)n1`, the Activity was 100% in the assay on Chenopodium album [2]; 100% in assay [3]; 100% in the assay on Digitaria ciliaris [4]; 91% in the assay on Persicaria longiseta [5]; 91% in the assay on Chenopodium album [6]; 100% with Digitaria ciliaris [7]. For the same molecule, the Activity worked out at 100% in [8]; 100% in the assay on Pontederia vaginalis; 91% with Rotala indica; 100% in [9]; 91% with Echinochloa oryzicola. Moreover, the pI50 in assay [11] was found to be 6.97.

As to `Cc1nc(NCc2ccccc2)nc(C(F)(F)F)n1`, the Activity in the assay with Chenopodium album [2] stood at 100%; in assay [3], 76%; with Digitaria ciliaris [4], 91%; in the assay with Persicaria longiseta [5], 76%; with Chenopodium album [6], 76%; in the assay on Digitaria ciliaris [7], 91%. Also, the Activity in [8] is recorded as 100%; in the assay on Pontederia vaginalis it was 91%; with Rotala indica, 76%; in assay [9], 91%; with Echinochloa oryzicola, 76%.

As to `Cc1nc(NCc2ccc(Cl)cc2)nc(C(F)F)n1`, the pI50 in [11] was 6.62.

For `CCCc1nc(C)nc(N(C=O)Cc2ccc(Cl)cc2)n1`, the Activity was 76% in assay [1]; 91% in the assay on Chenopodium album [2]; 51% in [3]; 91% in the assay with Digitaria ciliaris [4]; 100% in the assay with Persicaria longiseta [5]; 100% in the assay on Chenopodium album [6]. The Activity is given as 1% in the assay on Digitaria ciliaris [7]; 100% in assay [8]; 76% in the assay on Pontederia vaginalis; 100% with Rotala indica; 1% in [9]; 0% with Echinochloa oryzicola. The Activity with Persicaria longiseta [10] came out at 100%.

`Cc1nc(N(C=O)Cc2ccccc2)nc(C(F)(F)F)n1`: the Activity in assay [1] worked out at 76%; in the assay on Chenopodium album [2] it was 100%; in assay [3], 76%; in the assay with Digitaria ciliaris [4] it was 76%; in the assay with Persicaria longiseta [5], 100%; in the assay on Chenopodium album [6], 100%. Moreover, the Activity in the assay on Digitaria ciliaris [7] is given as 76%; in assay [8], 76%; with Pontederia vaginalis, 26%; in [9] it was 0%; in the assay on Echinochloa oryzicola it was 0%; in the assay with Persicaria longiseta [10], 91%.

Take `CC(=O)N(Cc1ccccc1)c1nc(C)nc(C(F)(F)F)n1`: the Activity worked out at 100% in the assay on Chenopodium album [2]; 0% in [3]; 1% in the assay on Digitaria ciliaris [4]; 51% in the assay with Persicaria longiseta [5]; 100% in the assay on Chenopodium album [6]; 0% in the assay on Digitaria ciliaris [7]. Moreover, the Activity was 76% in [8], 100% with Pontederia vaginalis, 100% in assay [9] and 100% with Echinochloa oryzicola.

In the case of `CCCC(=O)N(Cc1ccccc1)c1nc(C)nc(C(F)(F)F)n1`, the Activity in assay [1] was determined as 76%; in the assay on Chenopodium album [2], 76%; in [3], 51%; with Digitaria ciliaris [4], 51%; in the assay with Persicaria longiseta [5], 1%; in the assay with Chenopodium album [6] it was 100%. For the same molecule, the Activity in the assay on Digitaria ciliaris [7] amounted to 51%; in assay [8], 100%; with Pontederia vaginalis it was 51%; in the assay with Rotala indica, 26%; in assay [9] it was 0%; with Echinochloa oryzicola, 0%. Moreover, the Activity in the assay on Persicaria longiseta [10] came to 51%.

On to `Cc1nc(N(Cc2ccccc2)C(=O)C(C)(C)C)nc(C(F)(F)F)n1`, for which the Activity in assay [3] turned out to be 26%; with Digitaria ciliaris [4], 51%.

Consider `Cc1nc(C(F)F)nc(N(C=O)Cc2ccc(Cl)cc2)n1`, for which the Activity in [1] came to 100%; in the assay with Chenopodium album [2], 100%; in [3], 100%; in the assay with Digitaria ciliaris [4], 91%; in the assay with Persicaria longiseta [5], 100%; in the assay on Chenopodium album [6], 100%. The Activity in the assay on Digitaria ciliaris [7] is recorded as 76%; in assay [8], 76%; with Pontederia vaginalis, 100%; in the assay on Rotala indica, 100%; in [9], 76%; with Echinochloa oryzicola it was 91%. Besides, in the assay with Persicaria longiseta [10], the Activity was found to be 100%.

As to `Cc1nc(N(C=O)Cc2ccc(Cl)cc2)nc(C(F)(F)F)n1`, the Activity in assay [1] was 91%; in the assay on Chenopodium album [2], 100%; in assay [3], 100%; in the assay with Digitaria ciliaris [4] it was 91%; in the assay on Persicaria longiseta [5], 100%; in the assay on Chenopodium album [6], 100%. Besides, the Activity is given as 91% in the assay on Digitaria ciliaris [7]; 100% in assay [8]; 100% in the assay with Pontederia vaginalis; 100% in the assay on Rotala indica; 91% in [9]; 91% in the assay on Echinochloa oryzicola. In addition, in the assay with Persicaria longiseta [10], the Activity was found to be 100%.

Take `Cc1nc(N(C=O)Cc2ccc(Cl)cc2)nc(C(F)(F)C(F)(F)F)n1`: the Activity in [1] is 100%; with Chenopodium album [2], 91%; in assay [3] it was 100%; with Digitaria ciliaris [4] it was 100%; with Persicaria longiseta [5] it was 100%; in the assay on Chenopodium album [6] it was 100%. Moreover, the Activity was 76% in the assay with Digitaria ciliaris [7]; 100% in assay [8]; 100% in the assay on Pontederia vaginalis; 100% in the assay with Rotala indica; 100% in assay [9]; 76% with Echinochloa oryzicola. This molecule registered an Activity in the assay on Persicaria longiseta [10] of 100%.

As for `CCNc1nc(Cl)nc(NC(C)C)n1` [ATRAZINE], the Activity in the assay with Persicaria longiseta [5] came to 91%; in the assay with Chenopodium album [6], 91%; in the assay on Pontederia vaginalis, 100%; in [9] it was 76%; in the assay with Echinochloa oryzicola it was 91%.

For `CCNc1nc(Cl)nc(NCC)n1` [SIMAZINE], the Activity in assay [1] came out at 91%; in the assay with Chenopodium album [2], 91%; in assay [3], 26%; in the assay with Digitaria ciliaris [4], 51%. The pI50 in assay [11] was 6.28.
